Laboratory results from patent US7648961B2, “Use of somatostatin or one of its analogues for preparing a medicament intended to regulate the ovarian follicular reserve in non-menopausal women” (Preglem S.A., priority 2003, dated 2010).
Where a SMILES comes first, the peptide text is derived from it. [ ]: non-standard residue; d: D form. Tic = O=C(O)[C@@H]1Cc2ccccc2CN1; Abu = CC[C@H](N)C(=O)O

Assays:
[1] = tested on: primordial follicles of ovarian cortex; assay: Culture of ewe ovarian cortex fragments for 10 days: start of growth of primordial follicles; type: cell-based; conditions: for start of growth of the primordial follicles: ewe ovarian cortex, 10 days of culture, versus control fragments
Description: Ovaries of adult ewes are collected immediately after slaughter. The ovaries are placed in an organ transport medium without serum (X-vivo, Bio Whittaker, Walkersville, Md., USA) at 10° C. and transported to the laboratory. Approximately 1 h after removal, the cortex is isolated from the medulla then fractionated into slices of 2 mm thickness (1 cm^2, average weight of 212 mg) after rinsing in new X-vivo. The cortex fragments are cultured in an oven under 5% oxygen for 10 days in well plates in the presence of DMEM. The medium is changed every 2 days.
The procedure used is the same as for Example 1, except that the somatostatin is replaced with one of its agonist analogues, namely the synthetic peptide of formula c[Tic-Tyr-DTrp-Lys-Abu-Phe] (hereafter AG1 peptide).
The procedure used is the same as for Example 1, except that the somatostatin is replaced by one of its antagonist analogues, namely the synthetic peptide of formula Cpa-c(DCys-3-Pal-DTrp-NMeLys-Thr-Cys)-2-Nal-NH2 (hereafter ANT1 peptide).
(§1) FIG. 1 represents the proportions of dormant follicles during a period of 10 days of culture of an ovarian cortex of a ewe in the presence or absence (control) of somatostatin (SST14). These proportions are measured for each sample tested on the day of the start of the experiment (D0), on the 4th day (D4), on the 7th day (D7) and on the 10th day (D10).
as §1, with “FIG. 2” for “FIG. 1”, “of primary” for “of dormant”
FIG. 3 represents the proportions of primordial, intermediate, primary and secondary follicles during a period of 10 days of culture of an ovarian cortex of a ewe in the absence of agonist or somatostatin antagonist analogue. These proportions are measured for each sample tested on the day of the start of the experiment (D0), on the 4th day (D4), on the 7th day (D7) and on the 10th day (D10).
(§2) FIG. 4 represents the proportions of primordial, intermediate, primary and secondary follicles during a period of 10 days of culture of an ovarian cortex of a ewe in the presence or absence of a somatostatin agonist analogue, the synthetic peptide of formula c[Tic-Tyr-DTrp-Lys-Abu-Phe] (AG1 peptide). These proportions are measured for each sample tested on the day of the start of the experiment (D0), on the 4th day (D4), on the 7th day (D7) and on the 10th day (D10).
as §2, with “FIG. 5” for “FIG. 4”, “somatostatin antagonist” for “somatostatin agonist”, “formula Cpa-c(DCys-3-Pal-DTrp-NMeLys-Thr-Cys)-2-Nal-NH2 (ANT1” for “formula c[Tic-Tyr-DTrp-Lys-Abu-Phe] (AG1”

ovarian follicles = assay: Envisaged typical clinical situations of use in patients; type: in vivo, human; conditions: patient with polycystic ovary syndrome, 120 mg/month, 4th month of treatment, envisaged situation
From the text: The following typical situations for a use according to the invention could however be envisaged: • A patient of approximately 20 to 25 years of age (for example) has a partial Turner syndrome through X chromosome microdeletion. Their ovarian function is apparently normal with regular ovulatory cycles. Their FSH serum level is slightly higher during the luteal-follicular transition period (for example FSH=approximately 9.2 IU/litre). […] Considering the high risk that they will have early menopause, the patient is treated with lanreotide acetate at a dose of 120 mg/months (Somatuline® Autogel® 120 mg, Beaufour Ipsen Pharma, France). The treatment is discontinued after several years when the patient wishes to conceive. • A patient of approximately 35 to 40 years of age has had primary sterility for several years. Assessment of the couple produced a diagnosis of sterility of tubal origin, very probably resulting from a history of peritonitis. The menstrual cycles are ovulatory and the FSH serum level is slightly higher during the luteal-follicular transition period (for example FSH=approximately 11.4 IU/L). […] A diagnosis of reduction of the ovarian reserve is made. […] During this treatment, the number of antral follicles present in each ovary is assessed by ultrasound at the start of each menstrual cycle. […]

[2] = AG1 peptide at 10^-9 M, D0-D10, FIG. 4

## CC[C@@H]1NC(=O)[C@H](CCCCN)NC(=O)[C@@H](Cc2c[nH]c3ccccc23)NC(=O)[C@H](Cc2ccc(O)cc2)NC(=O)[C@@H]2Cc3ccccc3CN2C(=O)[C@H](Cc2ccccc2)NC1=O [AG1 peptide, c[Tic-Tyr-DTrp-Lys-Abu-Phe]] (cyclo([Tic]Y[dW]K[Abu]F))
[1]; [2]
  number of primary follicles: absence of increase in the number of primary follicles
  number of primordial follicles over time: maintenance over time of the number of primordial follicles
[1]; AG1 peptide at 10^-9 M
  start of growth of the primordial follicles: very significantly inhibits the start of growth of the primordial follicles

## C[C@H](N)C(=O)NCC(=O)N[C@H]1CSSC[C@@H](C(=O)O)NC(=O)[C@H](CO)NC(=O)[C@H]([C@@H](C)O)NC(=O)[C@H](Cc2ccccc2)NC(=O)[C@H]([C@@H](C)O)NC(=O)[C@H](CCCCN)NC(=O)[C@H](Cc2c[nH]c3ccccc23)NC(=O)[C@H](Cc2ccccc2)NC(=O)[C@H](Cc2ccccc2)NC(=O)[C@H](CC(N)=O)NC(=O)[C@H](CCCCN)NC1=O [SST14]
[1]; SST14 at 10^-9 M to 10^-6 M, D0-D10, FIG. 1
  number of primordial follicles over time: maintenance over time of the number of primordial follicles
[1]; SST14 at 10^-9 M to 10^-6 M, D0-D10, FIG. 2
  number of primary follicles: absence of increase in the number of primary follicles
[1]; SST14 at 10^-9 M to 10^-6 M
  start of growth of the primordial follicles: very significantly inhibits the start of growth of the primordial follicles

## CC(C)[C@@H]1NC(=O)[C@H](CCCCN)NC(=O)[C@@H](Cc2c[nH]c3ccccc23)NC(=O)[C@H](Cc2ccc(O)cc2)NC(=O)[C@@H](NC(=O)[C@H](N)Cc2ccc3ccccc3c2)CSSC[C@@H](C(=O)N[C@H](C(N)=O)[C@@H](C)O)NC1=O [lanreotide acetate]
Ovarian follicles
  ovarian volume and number of antral follicles (ultrasound): reduction in ovarian volume and in the number of antral follicles
